Test [1] concerns the target benzodiazepine receptor (GABAA receptor). Description: in vitro inhibition of 3H-flunitrazepam binding (rat cerebral cortex membranes). Further details: species or system rat (male Wistar. The text has this:
At present two types of GABA receptors are known, the GABAA and the GABAB receptors. […] Activation of GABA receptors leads to alternations in membrane potential (hyperpolarization). The GABAA receptors are associated with chloride influx through its associated and integrated chloride channel, whereas GABAB receptor activation indirectly alters potassium and calcium channels as well as modifies second messenger production. The GABAA recognition sites can be activated by GABA, muscimol; and isoguvacine for example, but not by GABAB agonists such as for example baclofen. The modulatory GABAA recognition site at the benzodiazepine receptor sites can be selectively radiolabelled with 3H-flunitrazepam. The affinity of various potential ligands for the benzodiazepine receptor sites can thus be evaluated by estimating the ability of test compounds to displace 3H-flunitrazepam.
Tissue preparations are performed at zero to four degrees Celsius. Cerebral cortex from male Wistar rats (150-200 g) is homogenized in 2 times 10 ml Tris-HCl, 30 mM at pH 7.4 The resulting suspension is centrifuged at 40,000 g for 15 minutes. The pellet is washed three times with buffer, centrifuged at two degrees Celsius at 40,000 g for ten minutes. The washed pellet is homogenized in 2 times 10 ml of buffer and is thereafter incubated on a water bath at 37° C. for 30 minutes and is thereafter centrifuged at 40,000 g for 10 minutes. The pellet is then homogenized with buffer and is centrifuged at 0° C. for 10 minutes at 40,000 g. The final pellet is resuspended in 30 ml buffer and the preparation may thereafter be stored at -20° C. In the test situation the membrane preparation is thawed and centrifuged at 2° C. for ten minutes at 48,000 g. The pellet is then washed two times with 2 times 10 ml 50 mM Tris-citrate at pH 7.1 using an Ultra-Turrax homogenizer and centrifuged at 48,000 g for 10 minutes. The hereby obtained pellet is resuspended in 50 mM Tris-citrate at pH 7.1,500 ml buffer per gram of original tissue, and is then used for binding assays. Aliquots of 0.5 ml tissue is added to 0.025 ml of 3H-flunitrazepam, final concentration of 1 nM, and is mixed and incubated for 40 minutes at 2° C. Non-specificbinding is determined using clonazepam, at 100 ng/ml final concentration. After incubation 5 ml of icecold buffer is added to the samples and these are poured directly onto Whatman GF/C glass fibre filters under suction and is immediately washed with 5 ml icecold buffer. The amount of radioactivity on the filters is determined by conventional liquid scintillation counting. Specific binding is total binding minus non specific binding. Test value is calculated as the IC50 which is equivalent to the concentration which inhibits the specific binding by 50 percent.
The method used to determine in vitro inhibition of ^3 H-flunitrazepam binding is presented under the heading of Biology.

Test [2] concerns GABAA receptor-ion channel complex (benzodiazepine receptor, mouse forebrain). Description: in vivo inhibition of 3H-flunitrazepam binding in mouse forebrain. Conditions: i.p. 10 min before i.v. 3H-FNM, mice killed 20 min later, 30 min. Further details: species or system mouse (female NMRI).
Test [3] has as its system GABAA receptor-ion channel complex. Conditions: background statement, in vitro; cited from earlier work.
The mark [4] stands for this setting: first table, 1 nM 3H-flunitrazepam, 40 min at 2° C, read-out: IC50.
Where [5] appears, read: second table (R6/R11), 3H-flunitrazepam, read-out: in-vitro binding IC50.

Read-outs that look alike come from different tables or passages of the source.

As for `c1cncc(-c2cccc(-n3cnc4cc(-c5ccoc5)ccc43)c2)c1` [Compound 45a, 1-[3-(3-pyridyl)-phenyl]-5-(3-furanyl)-benzimidazole], the values for the IC50 in test [1] (setting [4]) and in test [1] (setting [5]) were 1.2 nM and 1.4 nM, respectively. Besides, the “in-vivo binding ED50” value in test [2] worked out at 1.9 mg/kg.
Turning to `FC(F)(F)c1ccc2c(c1)ncn2-c1cccc(-n2ccnc2)c1` [Compound 3a, 1-(3-(1-Imidazolyl)-phenyl)-5 trifluoromethylbenzimidazole], the IC50 in test [1] (setting [5]) worked out at 16 nM. Further, the “in-vivo binding ED50” value in test [2] is listed as 7.3 mg/kg.
With `CC(C)(C)c1ccc2c(c1)ncn2-c1cccc(-n2ccnc2)c1` [Compound 6a, 1-[3-(1-imidazolyl)-phenyl]-5-t-butyl-benzimidazole], the IC50 in test [1] (setting [4]) and in test [1] (setting [5]) was 2.4 nM throughout. Besides, the “in-vivo binding ED50” value in test [2] came to 2.1 mg/kg.
As for `Cc1nccn1-c1cccc(-n2cnc3cc(-c4ccccc4)ccc32)c1` [Compound 38a, 1-[3-(1-(2-methylimidazolyl))-phenyl]-5-phenyl-benzimidazole], the IC50 in test [1] (setting [4]) and in test [1] (setting [5]) was 9 nM in each case. Further, the “in-vivo binding ED50” value in test [2] was found to be 2.6 mg/kg.
Consider `c1cncc(-c2cccc(-n3cnc4cc(-n5ccnc5)ccc43)c2)c1` [Compound 56a], for which the IC50 in test [1] (setting [5]) amounted to 22 nM. In addition, the “in-vivo binding ED50” value in test [2] is 6.8 mg/kg.
Turning to `CC(C)c1ccc2c(c1)ncn2-c1cccc(-n2cnc3ccccc32)c1` [Compound 34a, 1-[3-(1-benzimidazolyl)-phenyl]-5-i-propyl-benzimidazole], the IC50 in test [1] (setting [4]) and in test [1] (setting [5]) was 4.3 nM in each case. Further, in test [2], the “in-vivo binding ED50” value was 2.8 mg/kg.
`FC(F)(F)c1ccc2c(c1)ncn2-c1cccc(-n2cnc3ccccc32)c1` [Compound 39a, 1-[3-(1-benzimidazolyl)-phenyl]-5-trifluoromethyl-benzimidazole]: the IC50 in test [1] (setting [4]) and in test [1] (setting [5]) was 9.2 nM each time. Also, in test [2], the “in-vivo binding ED50” value is given as 7.5 mg/kg.
Consider `Cc1cn(-c2cccc(-n3cnc4cc(C(C)(C)C)ccc43)c2)cn1` [Compound 8a], for which the IC50 in test [1] (setting [5]) stood at 11 nM.
Take `c1cncc(-c2cccc(-n3cnc4cc(-c5nc(C6CC6)no5)ccc43)c2)c1` [Compound 53a]: the IC50 in test [1] (setting [5]) worked out at 28 nM. The “in-vivo binding ED50” value in test [2] is reported as 24.0 mg/kg.
As for `Ic1ccc2c(c1)ncn2-c1cccc(-c2cccnc2)c1` [Compound 18a, 1-[3-(3-pyridyl)-phenyl]-5-iodo-benzimidazole], the IC50 in test [1] (setting [4]) and in test [1] (setting [5]) was 1.7 nM in each case. In addition, in test [2], the “in-vivo binding ED50” value amounted to 1.5 mg/kg.
Regarding `ON=Cc1ccc2c(c1)ncn2-c1cccc(-c2cccnc2)c1` [Compound 52a, 1-(3-(3-pyridyl)phenyl)-5-aldoximobenzimidazole], the IC50 in test [1] (setting [5]) was determined as 3.3 nM. Besides, the “in-vivo binding ED50” value in test [2] was found to be 1.6 mg/kg.
For `O=CNc1ccc2c(c1)ncn2-c1cccc(-n2ccnc2)c1` [Compound 41a], in test [1] (setting [5]), the IC50 turned out to be 13 nM. The “in-vivo binding ED50” value in test [2] is reported as over 10.0 mg/kg.
With `COCc1ccc2c(c1)ncn2-c1cccc(-c2cccnc2)c1` [Compound 58a], the IC50 in test [1] (setting [5]) was 15 nM. In addition, the “in-vivo binding ED50” value in test [2] amounted to 1.7 mg/kg.
As for `CC(C)c1ccc2c(c1)ncn2-c1cccc(-n2ccnc2)c1` [Compound 14a, 1-[3-(1-imidazolyl)-phenyl]-5-i-propyl-benzimidazole], the IC50 in test [1] (setting [4]) and in test [1] (setting [5]) was 0.6 nM each time. In addition, in test [2], the “in-vivo binding ED50” value was found to be 1.2 mg/kg.
Take `NC(=O)NN=Cc1ccc2c(c1)ncn2-c1cccc(-c2cccnc2)c1` [Compound 55a, 1-(3-(3-pyridyl)phenyl)-5-semicarbazonobenzimidazole]: in test [1] (setting [5]), the IC50 was determined as 7.6 nM. Besides, the “in-vivo binding ED50” value in test [2] was over 3.0 mg/kg.
As to `Cc1ccc2c(c1)ncn2-c1cccc(-n2ccnc2)c1` [Compound 5a, 1-[3-(1-imidazolyl)-phenyl]-5-methyl-benzimidazole], the IC50 in test [1] (setting [4]) and in test [1] (setting [5]) was 1.2 nM each time. Further, the “in-vivo binding ED50” value in test [2] amounted to 0.8 mg/kg.
On to `CON=Cc1ccc2c(c1)ncn2-c1cccc(-c2cccnc2)c1` [Compound 59a, 1-[3-(3-pyridyl)-phenyl]-5-methylaldoximo-benzimidazole], for which the IC50 in test [1] (setting [5]) amounted to 2 nM. In addition, the “in-vivo binding ED50” value in test [2] is given as 1.04 mg/kg.
Regarding `Cc1noc(-c2cccc(-n3cnc4cc(C(C)(C)C)ccc43)c2)n1` [Compound 33a], in test [1] (setting [5]), the IC50 was 13 nM. The “in-vivo binding ED50” value in test [2] worked out at 8.2 mg/kg.
The matching figures for `CC(C)c1ccc2c(c1)ncn2-c1cccc(-c2cccnc2)c1` [Compound 60a, 1-[3-(3-pyridyl)-phenyl]-5-i-propyl-benzimidazole]: 4.2 nM and 2.2 mg/kg.
In the case of `O=[N+]([O-])c1ccc2c(c1)ncn2-c1cccc(-c2cccnc2)c1` [Compound 24a], the concentration for half-maximal inhibition (IC50) in test [1] (setting [5]) is 40 nM. In addition, in test [2], the “in-vivo binding ED50” value was 6.1 mg/kg.
Consider `CN1C(=O)CN=C(c2ccccc2F)c2cc([N+](=O)[O-])ccc21` [^3 H-FNM], for which, in test [3], the “binding to the GABAA receptor-ion channel complex (in words)” value was “selectively and with high-affinity”.
Regarding `CC(C)(C)c1ccc2c(c1)ncn2-c1cccc(-c2cccnc2)c1` [Compound 22a, 1-[3-(3-pyridyl)-phenyl]-5-t-butyl-benzimidazole], in test [1] (setting [5]), the IC50 was determined as 10 nM. In addition, the “in-vivo binding ED50” value in test [2] was 16.3 mg/kg.
Turning to `c1ccc(-c2ccc3c(c2)ncn3-c2cccc(-n3ccnc3)c2)cc1` [Compound 9a, 1-[3-(1-imidazolyl)-phenyl]-5-phenyl-benzimidazole], the IC50 in test [1] (setting [4]) worked out at 7.4 nM; in test [1] (setting [5]), 7.2 nM. Besides, the “in-vivo binding ED50” value in test [2] came to 8.9 mg/kg.
Regarding `CN1C(=O)c2ccccc2-n2cnc3cc(C(F)(F)F)cc1c32` [Compound 2f, 4-trifluoromethyl-6,7-dihydro-6-methyl-7-oxo-benzimidazo[3,4-ab][1,4]benzodiazepine], in test [1] (setting [4]), the IC50 stood at 5.4 nM.
Consider `O=Cc1ccc2c(c1)ncn2-c1cccc(-c2cccnc2)c1` [Compound 50a, 1-(3-(3-pyridyl)phenyl)-5-formylbenzimidazole], for which the IC50 in test [1] (setting [5]) stood at 37 nM. The “in-vivo binding ED50” value in test [2] is reported as over 3 mg/kg.
Turning to `CC(C)OC(=O)c1ccc2c(c1)ncn2-c1cccc(-n2ccnc2)c1` [Compound 4a], the IC50 in test [1] (setting [5]) was 11 nM. Besides, the “in-vivo binding ED50” value in test [2] is recorded as over 10.0 mg/kg.
For `c1cncc(-c2cccc(-n3cnc4cc(-c5ccco5)ccc43)c2)c1` [Compound 57a, 1-[3-(3-pyridyl)-phenyl]-5-(2-furanyl)-benzimidazole], the IC50 in test [1] (setting [5]) is 4.3 nM. For the same compound, the “in-vivo binding ED50” value in test [2] is 4.8 mg/kg.

Values taken from US5554630A, “Benzimidazole compounds” (NeuroSearch A/S, priority 1993, dated 1996).
